# Measured values reported in ChEMBL document CHEMBL1158925, “New proazulene guaianolides from Thapsia villosa” (J Nat Prod, 1990).
# Activity calls are given as the source filed them. The rule behind the calls is not given here.
# Assays:
# [1] = test system: Mast cell; test: Induction of histamine release in rat peritoneal mast cells at 10 uM; type: functional, cell-based
# [2] = Skin irritant activity in mouse ear at 10 ug after 24 hrs; type: ADME, tissue-based; details: in vivo, topical_or_ocular
Compound,Activity [1],Activity [2]
CCC(C)C(=O)O[C@H]1C[C@](C)(OC(C)=O)[C@@H]2[C@@H](C(C)=C[C@H]2O)[C@@H]2OC(=O)[C@@](C)(OC(C)=O)[C@@H]21 (stereo not given in full),inactive,Non-toxic
CCC(C)C(=O)O[C@H]1C[C@](C)(OC(C)=O)[C@@H]2[C@@H](C(C)=C[C@H]2OC(C)=O)[C@@H]2OC(=O)[C@@](C)(OC(C)=O)[C@@H]21 (stereo not given in full),inactive,Non-toxic
CC(=O)O[C@@]1(C)C[C@H](OC(=O)C=C(C)C)[C@@H]2[C@@H](OC(=O)[C@@]2(C)OC(C)=O)[C@@H]2C(C)=C[C@@H](O)[C@@H]21,inactive,Non-toxic
CC(=O)O[C@@H]1C=C(C)[C@H]2[C@@H]3OC(=O)[C@@](C)(OC(C)=O)[C@@H]3[C@@H](OC(=O)C=C(C)C)C[C@](C)(OC(C)=O)[C@H]21,inactive,Non-toxic
C/C=C(/C)C(=O)O[C@H]1C(C)=C2[C@H]([C@@H]1OC(=O)CCCCCCC)[C@@](C)(OC(C)=O)C[C@H](OC(=O)CCC)[C@@]1(O)[C@H]2OC(=O)[C@@]1(C)O [THAPSIGARGIN],inactive,Non-toxic
